In the supplement of paper PMC10307832:

Experiments:
Test in all cases: relative viability (nuclei count vs DMSO), 5 days (fraction); higher = more cells survive
NCI-H1703 = system: NCI-H1703
Method in brief: (§1)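 Lung cancer cell lines in 1536-well plates got either a single drug or a fixed anchor-drug dose together with five library-drug doses (not always all listed) in √10 steps, by pin tool, on the day after seeding. Nuclei were counted after 5 days, and relative viability is the treated-to-vehicle ratio of nuclei counts. Values are medians of duplicate plates.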

IA-LM = system: IA-LM
Method in brief: as §1

EBC-1 = system: EBC-1
Method in brief: as §1

A549 = system: A549
Method in brief: as §1

SW 1573 = system: SW 1573
Method in brief: as §1

Calu-6 = system: Calu-6
Method in brief: as §1

COR-L23 = system: COR-L23
Method in brief: as §1

ChaGo-K-1 = system: ChaGo-K-1
Method in brief: as §1

NCI-H1651 = system: NCI-H1651
Method in brief: as §1

NCI-H1437 = system: NCI-H1437
Method in brief: as §1

ABC-1 = system: ABC-1
Method in brief: as §1

NCI-H1299 = system: NCI-H1299
Method in brief: as §1

SK-MES-1 = system: SK-MES-1
Method in brief: as §1

Structure (SMILES): CC(=O)O[C@@]12CO[C@@H]1C[C@H](O)[C@@]1(C)C(=O)[C@H](O)C3=C(C)[C@@H](OC(=O)[C@H](O)[C@@H](NC(=O)OC(C)(C)C)c4ccccc4)C[C@@](O)([C@@H](OC(=O)c4ccccc4)[C@H]21)C3(C)C [Docetaxel] + C[C@@H](Oc1cc(-c2cnn(C3CCNCC3)c2)cnc1N)c1c(Cl)ccc(F)c1Cl [Crizotinib] (partner 1 µM)
- relative viability (NCI-H1703; first compound 0.0002 µM): 0.483
- relative viability (NCI-H1703; first compound 0.000632 µM): 0.379
- relative viability (NCI-H1703; first compound 0.002 µM): 0.226
- relative viability (NCI-H1703; first compound 0.006325 µM): 0.0913
- relative viability (NCI-H1703; first compound 0.02 µM): 0.133
- relative viability (IA-LM; first compound 0.0002 µM): 0.395
- relative viability (IA-LM; first compound 0.000632 µM): 0.145
- relative viability (IA-LM; first compound 0.002 µM): 0.0955
- relative viability (IA-LM; first compound 0.006325 µM): 0.078
- relative viability (IA-LM; first compound 0.02 µM): 0.0873
- relative viability (EBC-1; first compound 0.0002 µM): 0.187
- relative viability (EBC-1; first compound 0.000632 µM): 0.146
- relative viability (EBC-1; first compound 0.002 µM): 0.167
- relative viability (EBC-1; first compound 0.006325 µM): 0.163
- relative viability (EBC-1; first compound 0.02 µM): 0.151
- relative viability (A549; first compound 0.0002 µM): 0.641
- relative viability (A549; first compound 0.000632 µM): 0.432
- relative viability (A549; first compound 0.002 µM): 0.0535
- relative viability (A549; first compound 0.006325 µM): 0.0545
- relative viability (A549; first compound 0.02 µM): 0.0485
- relative viability (SW 1573; first compound 0.0002 µM): 0.737
- relative viability (SW 1573; first compound 0.000632 µM): 0.307
- relative viability (SW 1573; first compound 0.006325 µM): 0.218
- relative viability (SW 1573; first compound 0.02 µM): 0.203
- relative viability (Calu-6; first compound 0.0002 µM): 0.805
- relative viability (Calu-6; first compound 0.000632 µM): 0.394
- relative viability (Calu-6; first compound 0.002 µM): 0.219
- relative viability (Calu-6; first compound 0.006325 µM): 0.159
- relative viability (Calu-6; first compound 0.02 µM): 0.105
- relative viability (COR-L23; first compound 0.0002 µM): 0.536
- relative viability (COR-L23; first compound 0.000632 µM): 0.483
- relative viability (COR-L23; first compound 0.002 µM): 0.111
- relative viability (COR-L23; first compound 0.006325 µM): 0.132
- relative viability (COR-L23; first compound 0.02 µM): 0.0806
- relative viability (ChaGo-K-1; first compound 0.0002 µM): 1.06
- relative viability (ChaGo-K-1; first compound 0.000632 µM): 0.813
- relative viability (ChaGo-K-1; first compound 0.002 µM): 0.457
- relative viability (ChaGo-K-1; first compound 0.006325 µM): 0.339
- relative viability (ChaGo-K-1; first compound 0.02 µM): 0.263
- relative viability (NCI-H1651; first compound 0.0002 µM): 0.835
- relative viability (NCI-H1651; first compound 0.000632 µM): 0.876
- relative viability (NCI-H1651; first compound 0.002 µM): 0.612
- relative viability (NCI-H1651; first compound 0.006325 µM): 0.168
- relative viability (NCI-H1651; first compound 0.02 µM): 0.167
- relative viability (NCI-H1437; first compound 0.0002 µM): 0.901
- relative viability (NCI-H1437; first compound 0.000632 µM): 0.878
- relative viability (NCI-H1437; first compound 0.002 µM): 0.197
- relative viability (NCI-H1437; first compound 0.006325 µM): 0.113
- relative viability (NCI-H1437; first compound 0.02 µM): 0.11
- relative viability (ABC-1; first compound 0.0002 µM): 1.04
- relative viability (ABC-1; first compound 0.000632 µM): 0.78
- relative viability (ABC-1; first compound 0.002 µM): 0.274
- relative viability (ABC-1; first compound 0.006325 µM): 0.275
- relative viability (ABC-1; first compound 0.02 µM): 0.242
- relative viability (NCI-H1299; first compound 0.0002 µM): 0.972
- relative viability (NCI-H1299; first compound 0.000632 µM): 0.984
- relative viability (NCI-H1299; first compound 0.002 µM): 0.695
- relative viability (NCI-H1299; first compound 0.006325 µM): 0.392
- relative viability (NCI-H1299; first compound 0.02 µM): 0.305
- relative viability (SK-MES-1; first compound 0.0002 µM): 0.937
- relative viability (SK-MES-1; first compound 0.000632 µM): 0.845
- relative viability (SK-MES-1; first compound 0.002 µM): 0.287
- relative viability (SK-MES-1; first compound 0.006325 µM): 0.221
- relative viability (SK-MES-1; first compound 0.02 µM): 0.177

Structure (SMILES): Cc1sc2c(c1C)C(c1ccc(Cl)cc1)=N[C@@H](CC(=O)OC(C)(C)C)c1nnc(C)n1-2 [JQ1] + CS(=O)(=O)N1CCN(Cc2cc3nc(-c4cccc5[nH]ncc45)nc(N4CCOCC4)c3s2)CC1 [Pictilisib] (partner 1 µM)
- relative viability (NCI-H1703; first compound 0.04 µM): 0.234
- relative viability (NCI-H1703; first compound 0.1265 µM): 0.212
- relative viability (NCI-H1703; first compound 0.4 µM): 0.238
- relative viability (NCI-H1703; first compound 1.265 µM): 0.21
- relative viability (NCI-H1703; first compound 4 µM): 0.216
- relative viability (IA-LM; first compound 0.04 µM): 0.278
- relative viability (IA-LM; first compound 0.1265 µM): 0.103
- relative viability (IA-LM; first compound 0.4 µM): 0.0998
- relative viability (IA-LM; first compound 1.265 µM): 0.0879
- relative viability (IA-LM; first compound 4 µM): 0.0786
- relative viability (EBC-1; first compound 0.04 µM): 0.31
- relative viability (EBC-1; first compound 0.1265 µM): 0.245
- relative viability (EBC-1; first compound 0.4 µM): 0.15
- relative viability (EBC-1; first compound 1.265 µM): 0.11
- relative viability (EBC-1; first compound 4 µM): 0.156
- relative viability (A549; first compound 0.04 µM): 0.511
- relative viability (A549; first compound 0.1265 µM): 0.421
- relative viability (A549; first compound 0.4 µM): 0.35
- relative viability (A549; first compound 1.265 µM): 0.253
- relative viability (A549; first compound 4 µM): 0.185
- relative viability (SW 1573; first compound 0.04 µM): 0.486
- relative viability (SW 1573; first compound 0.1265 µM): 0.443
- relative viability (SW 1573; first compound 0.4 µM): 0.421
- relative viability (SW 1573; first compound 1.265 µM): 0.212
- relative viability (SW 1573; first compound 4 µM): 0.221
- relative viability (Calu-6; first compound 0.04 µM): 0.972
- relative viability (Calu-6; first compound 0.1265 µM): 0.826
- relative viability (Calu-6; first compound 0.4 µM): 0.897
- relative viability (Calu-6; first compound 1.265 µM): 0.468
- relative viability (Calu-6; first compound 4 µM): 0.372
- relative viability (COR-L23; first compound 0.04 µM): 0.805
- relative viability (COR-L23; first compound 0.1265 µM): 0.692
- relative viability (COR-L23; first compound 0.4 µM): 0.524
- relative viability (COR-L23; first compound 1.265 µM): 0.3
- relative viability (COR-L23; first compound 4 µM): 0.202
- relative viability (ChaGo-K-1; first compound 0.04 µM): 0.752
- relative viability (ChaGo-K-1; first compound 0.4 µM): 0.658
- relative viability (ChaGo-K-1; first compound 1.265 µM): 0.407
- relative viability (ChaGo-K-1; first compound 4 µM): 0.43
- relative viability (NCI-H1651; first compound 0.04 µM): 0.476
- relative viability (NCI-H1651; first compound 0.1265 µM): 0.451
- relative viability (NCI-H1651; first compound 0.4 µM): 0.335
- relative viability (NCI-H1651; first compound 1.265 µM): 0.271
- relative viability (NCI-H1651; first compound 4 µM): 0.245
- relative viability (NCI-H1437; first compound 0.04 µM): 0.405
- relative viability (NCI-H1437; first compound 0.1265 µM): 0.237
- relative viability (NCI-H1437; first compound 0.4 µM): 0.233
- relative viability (NCI-H1437; first compound 1.265 µM): 0.157
- relative viability (NCI-H1437; first compound 4 µM): 0.168
- relative viability (ABC-1; first compound 0.04 µM): 0.699
- relative viability (ABC-1; first compound 0.1265 µM): 0.545
- relative viability (ABC-1; first compound 0.4 µM): 0.512
- relative viability (ABC-1; first compound 1.265 µM): 0.387
- relative viability (ABC-1; first compound 4 µM): 0.365
- relative viability (NCI-H1299; first compound 0.04 µM): 0.691
- relative viability (NCI-H1299; first compound 0.1265 µM): 0.482
- relative viability (NCI-H1299; first compound 0.4 µM): 0.219
- relative viability (NCI-H1299; first compound 4 µM): 0.104
- relative viability (SK-MES-1; first compound 0.04 µM): 0.351
- relative viability (SK-MES-1; first compound 0.1265 µM): 0.299
- relative viability (SK-MES-1; first compound 0.4 µM): 0.298
- relative viability (SK-MES-1; first compound 1.265 µM): 0.179
- relative viability (SK-MES-1; first compound 4 µM): 0.202
